Test results as given in patent publication US8067445B2, “N,N-disubstituted aminoalkylbiphenyl antagonists of prostaglandin D2 receptors” (Panmira Pharmaceuticals, LLC, priority 2008, dated 2011).

Columns and labels:
human DP2 receptor = target: T1, human DP2 receptor (Homo sapiens, UniProt Q9Y5Y4); assay: DP2/CRTH2 radioligand binding assay ([3H]PGD2); conditions: [3H]PGD2 binding, membranes of HEK293 cells expressing human DP2; read-out: hDP2
T1 construct: expressed in transfected cells
T1 sequence (Q9Y5Y4 1-395): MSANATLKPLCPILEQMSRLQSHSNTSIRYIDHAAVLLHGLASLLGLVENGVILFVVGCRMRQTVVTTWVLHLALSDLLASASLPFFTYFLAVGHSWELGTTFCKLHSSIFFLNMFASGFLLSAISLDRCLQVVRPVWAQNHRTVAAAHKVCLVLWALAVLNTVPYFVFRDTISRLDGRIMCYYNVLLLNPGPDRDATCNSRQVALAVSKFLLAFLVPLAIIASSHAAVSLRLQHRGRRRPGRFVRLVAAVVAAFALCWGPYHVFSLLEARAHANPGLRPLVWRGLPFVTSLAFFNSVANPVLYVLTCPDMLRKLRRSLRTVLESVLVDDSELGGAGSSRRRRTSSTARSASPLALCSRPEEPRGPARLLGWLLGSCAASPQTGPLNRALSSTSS
Method in brief: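 Membranes from HEK293 cells stably expressing recombinant human DP2 incubated 60 min at room temperature with 1 nM [3H]PGD2 and compound in pH 7.4 Hepes/MnCl2/EDTA buffer, ± 0.2% human serum albumin. Bound radioactivity measured after filtration; non-specific binding defined with 10 μM PGD2. IC50 from titration curves.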

[1] = target: T2, recombinant human CRTH2 receptor (Homo sapiens, UniProt Q9Y5Y4); assay: GTPγS binding assay; format: biochemical; conditions: +HSA (0.2% human serum albumin), 80 nM PGD2, CHO cell membranes; read-out: hDP2 GTPγS μM (+HSA)
T2 construct: expressed in transfected cells
T2 sequence (Q9Y5Y4 1-395): T1 sequence (Q9Y5Y4 1-395)
Procedure: The ability of a compound to inhibit binding of GTP to DP2 is assessed via a membrane GTPγS assay. CHO cells stably expressing the recombinant human CRTH2 receptor are resuspended in 10 mM Hepes, 7.4 containing 1 mM DTT, lysed and centrifuged at 75,000×g to pellet the membranes. The membranes are resuspended in 10 mM Hepes, 7.4 containing 1 mM DTT and 10% glycerol. […] The reactions are terminated by rapid filtration through Whatman GF/B glass fibre filter plates. The filter plates are washed 3 times with 1 ml cold Assay Buffer and dried. Scintillant is then added to the plates and the radioactivity retained on the filters is determined on a Packard TopCount (Perkin Elmer). Specific binding is determined as total radioactive binding minus non-specific binding in the absence of the ligand (80 nM PGD2). IC50s were determined using Graphpad prism analysis of drug titration curves.

human DP1 receptor = target: T3, human DP1 receptor (Homo sapiens, UniProt Q13258); assay: DP1 radioligand binding assay ([3H]BWA868C, platelet membranes); conditions: [3H]BWA868C binding, human platelet membranes; read-out: hDP1
T3 construct: tissue Biological Specialty Corporation; host or cells: human platelet membranes
T3 sequence (Q13258 1-359): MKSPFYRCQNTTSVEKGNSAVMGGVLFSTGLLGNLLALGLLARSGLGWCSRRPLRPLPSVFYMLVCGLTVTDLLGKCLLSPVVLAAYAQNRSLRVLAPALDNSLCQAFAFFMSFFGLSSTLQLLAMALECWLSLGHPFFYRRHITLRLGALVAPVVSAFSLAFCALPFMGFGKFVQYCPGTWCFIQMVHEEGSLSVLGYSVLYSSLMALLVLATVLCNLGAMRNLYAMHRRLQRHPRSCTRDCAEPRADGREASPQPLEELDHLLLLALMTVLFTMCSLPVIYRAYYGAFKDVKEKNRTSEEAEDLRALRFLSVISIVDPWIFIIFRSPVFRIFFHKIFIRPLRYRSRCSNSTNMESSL
Method in brief: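 Human platelet membranes (20 μg protein/well) incubated 60 min at room temperature with 2 nM [3H]BWA868C and compound in 50 mM Hepes, 10 mM MnCl2, 1 mM EDTA, pH 7.4, ± 0.2% human serum albumin. Bound radioactivity measured after filtration; nonspecific binding defined with 10 μM BWA868C; IC50 from titration curves.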

Row | SMILES | IC50 (human DP2 receptor) | IC50 [1] | IC50 (human DP1 receptor)
1 | CCN(Cc1cc(-c2cnn(C)c2)ccc1-c1cc(CC(=O)O)ccc1OC)C(=O)C1CC1 [Compound 1-233, [2′-[(Cyclopropanecarbonyl-ethyl-amino)-methyl]-6-methoxy-4′-(1-methyl-1H-pyrazol-4-yl)-biphenyl-3-yl]-acetic acid] | < 300 nM | < 0.3 µM | 
2 | CCN(Cc1cc(C(F)(F)F)ccc1-c1cc([C@@H](C)C(=O)O)ccc1OC)C(=O)C1CC1 [Compound 1-224, (R)-2-{2′-[(Cyclopropanecarbonyl-ethyl-amino)-methyl]-6-methoxy-4′-trifluoromethyl-biphenyl-3-yl}-propionic acid] | < 300 nM | < 0.3 µM | 
3 | CCOc1ccc(-c2ccc(-c3cc(CC(=O)O)ccc3OC)c(CN(CC)C(=O)NCc3ccccc3)c2)cn1 [Compound 1-228, [2′-(3-Benzyl-1-ethyl-ureidomethyl)-4′-(6-ethoxy-pyridin-3-yl)-6-methoxy-biphenyl-3-yl]-acetic acid] | < 300 nM | < 0.3 µM | 
4 | CCN(Cc1cc(C(F)(F)F)ccc1-c1cc([C@@H](C)C(=O)O)cc(C(F)(F)F)c1)C(=O)C1CC1 [Compound 1-237, (R)-2-{2′-[(Cyclopropanecarbonyl-ethyl-amino)-methyl]-5,4′-bis-trifluoromethyl-biphenyl-3-yl}-propionic acid] | < 300 nM | < 0.3 µM | 
5 | COc1ccc(CC(=O)O)cc1-c1ccc(C(F)(F)F)cc1CN(C(C)=O)[C@@H]1c2ccccc2C[C@@H]1O [Compound 1-15, (2′-{[Acetyl-((1R,2S)-2-hydroxy-indan-1-yl)-amino]-methyl}-6-methoxy-4′-trifluoromethyl-biphenyl-3-yl)-acetic acid] | 1000 to 30000 nM |  | 1000 to 30000 nM
6 | CCN(Cc1cc(NC(=O)c2ccc(Cl)cc2)ccc1-c1cc(CC(=O)O)ccc1OC)C(=O)OCc1ccccc1 [Compound 1-154, [2′-[(Benzyloxycarbonyl-ethyl-amino)-methyl]-4′-(4-chloro-benzoylamino)-6-methoxy-biphenyl-3-yl]-acetic acid] | < 300 nM |  | 1000 to 30000 nM
7 | CCN(Cc1cc(C(F)(F)F)ccc1-c1cc(Cc2nn[nH]n2)ccc1OC)C(=O)C1CC1 [Compound 2-7, Cyclopropanecarboxylic acid ethyl-[2′-methoxy-5′-(2H-tetrazol-5-ylmethyl)-4-trifluoromethyl-biphenyl-2-ylmethyl]-amide] | 1000 to 30000 nM |  | 1000 to 30000 nM
8 | CCN(Cc1cc(C(F)(F)F)ccc1-c1cc(CC(=O)O)cc(C(F)(F)F)c1)C(=O)NCc1ccccc1 [Compound 1-158, [2′-(3-Benzyl-1-ethyl-ureidomethyl)-5,4′-bis-trifluoromethyl-biphenyl-3-yl]-acetic acid] | < 300 nM |  | 1000 to 30000 nM
9 | CCN(Cc1ccc(C)cc1-c1cc(CC(=O)O)ccc1OC)C(=O)NCc1ccccc1 [Compound 1-173, [2′-(3-Benzyl-1-ethyl-ureidomethyl)-6-methoxy-5′-methyl-biphenyl-3-yl]-acetic acid] | < 300 nM |  | 1000 to 30000 nM
10 | CCN(Cc1cc(C(F)(F)F)ccc1-c1cc(CC(=O)O)ccc1OC)C(=O)Cn1cccn1 [Compound 1-148, (2′-{[Ethyl-(2-pyrazol-1-yl-acetyl)-amino]-methyl}-6-methoxy-4′-trifluoromethyl-biphenyl-3-yl)-acetic acid] | < 300 nM |  | 1000 to 30000 nM
11 | CCN(Cc1cc(C(F)(F)F)ccc1-c1cc(CC(N)=O)ccc1OC)C(=O)OCc1ccccc1 [Compound 2-6, (5′-Carbamoylmethyl-2′-methoxy-4-trifluoromethyl-biphenyl-2-ylmethyl)-ethyl-carbamic acid benzyl ester] | 1000 to 30000 nM |  | 1000 to 30000 nM
12 | CCN(Cc1cc(C(F)(F)F)ccc1-c1cc(F)cc(CC(=O)O)c1)C(=O)NCc1ccccc1 [Compound 1-159, [2′-(3-Benzyl-1-ethyl-ureidomethyl)-5-fluoro-4′-trifluoromethyl-biphenyl-3-yl]-acetic acid] | < 300 nM |  | 1000 to 30000 nM
13 | CCN(Cc1cc(C(F)(F)F)ccc1-c1cc(Cl)cc(CC(=O)O)c1)C(=O)OC [Compound 1-164, {5-Chloro-2′-[(ethyl-methoxycarbonyl-amino)-methyl]-4′-trifluoromethyl-biphenyl-3-yl}-acetic acid] | < 300 nM |  | 1000 to 30000 nM
14 | CCN(Cc1cc(C(F)(F)F)ccc1-c1cc(C(F)(F)C(=O)O)ccc1OC)C(=O)OCc1ccccc1 [Compound 1-132, {2′-[(Benzyloxycarbonyl-ethyl-amino)-methyl]-6-methoxy-4′-trifluoromethyl-biphenyl-3-yl}-difluoro-acetic acid] | 1000 to 30000 nM |  | 1000 to 30000 nM
15 | COc1ccc(CC(=O)O)cc1-c1ccc(C(F)(F)F)cc1CN(C(C)=O)[C@@H](C)[C@H](O)c1ccccc1 [Compound 1-104, (2′-{[Acetyl-((1S,2R)-2-hydroxy-1-methyl-2-phenyl-ethyl)-amino]-methyl}-6-methoxy-4′-trifluoromethyl-biphenyl-3-yl)-acetic acid] | 1000 to 30000 nM |  | 1000 to 30000 nM
16 | CCN(Cc1ccc(C)cc1-c1cc(CC(=O)O)ccc1OC)C(=O)OCc1ccc(Cl)cc1 [Compound 1-175, (2′-{[(4-Chloro-benzyloxycarbonyl)-ethyl-amino]-methyl}-6-methoxy-5′-methyl-biphenyl-3-yl)-acetic acid] | < 300 nM |  | 300 to 1000 nM
17 | CCN(Cc1cc(C(F)(F)F)ccc1-c1cc(CC(C)(C)O)ccc1OC)C(C)=O [Compound 2-2, N-Ethyl-N-[5′-(2-hydroxy-2-methyl-propyl)-2′-methoxy-4-trifluoromethyl-biphenyl-2-ylmethyl]-acetamide] | 1000 to 30000 nM |  | 1000 to 30000 nM
18 | CCN(Cc1cc(C(F)(F)F)ccc1-c1cc(CC(=O)O)ccc1OC)C(=O)NCc1ccc(Cl)cc1 [Compound 1-140, {2′-[3-(4-Chloro-benzyl)-1-ethyl-ureidomethyl]-6-methoxy-4′-trifluoromethyl-biphenyl-3-yl}-acetic acid] | < 300 nM |  | 1000 to 30000 nM
19 | COc1ccc(CC(=O)O)cc1-c1ccc(C(=O)O)cc1CN(CC(F)(F)F)C(C)=O [Compound 1-37, 2-{[Acetyl-(2,2,2-trifluoro-ethyl)-amino]-methyl}-5′-carboxymethyl-2′-methoxy-biphenyl-4-carboxylic acid] | 1000 to 30000 nM |  | 1000 to 30000 nM
20 | CCN(Cc1cc(C(F)(F)F)ccc1-c1cc(CC(=O)O)ccc1OC)C(=O)NC1CC1 [Compound 1-182] | < 300 nM |  | 1000 to 30000 nM
21 | CCN(Cc1cc(C(F)(F)F)ccc1-c1cc(C(C)(C)C(=O)O)ccc1OC)C(C)=O [Compound 1-115, 2-{2′-[(Acetyl-ethyl-amino)-methyl]-6-methoxy-4′-trifluoromethyl-biphenyl-3-yl}-2-methyl-propionic acid] | > 30000 nM |  | 1000 to 30000 nM
22 | CCCN/C(=N\C#N)N(CC)Cc1cc(C(F)(F)F)ccc1-c1cc(CC(=O)O)ccc1OC [Compound 1-145, [2′-(N′-Cyano-N-ethyl-N″-propyl-guanidinomethyl)-6-methoxy-4′-trifluoromethyl-biphenyl-3-yl]-acetic acid] | < 300 nM |  | 1000 to 30000 nM
23 | CCN(Cc1cc(C(F)(F)F)ccc1-c1cc(CC(=O)O)cc(C(F)(F)F)c1)C(=O)OC [Compound 1-163, {2′-[(Ethyl-methoxycarbonyl-amino)-methyl]-5,4′-bis-trifluoromethyl-biphenyl-3-yl}-acetic acid] | < 300 nM |  | 1000 to 30000 nM
24 | COc1ccc(CC(=O)O)cc1-c1ccc(C(F)(F)F)cc1CN(C(C)=O)[C@@H]1c2ccccc2C[C@@H]1OC [Compound 1-16, (2′-{[Acetyl-((1R,2S)-2-methoxy-indan-1-yl)-amino]-methyl}-6-methoxy-4′-trifluoromethyl-biphenyl-3-yl)-acetic acid] | 1000 to 30000 nM |  | 1000 to 30000 nM
